Earlier results in US5733881A, “Opioid peptide antagonists” (Astra AB, priority 1994, dated 1998).

System: μ opioid receptors
Conditions: GPI assay

## Oc1ccc2c3c1O[C@H]1c4[nH]c5ccccc5c4C[C@@]4(O)[C@@H](C2)N(CC2CC2)CC[C@]314 [naltrindole]
  μ antagonist Ke: 29 nM
